From ChEMBL document CHEMBL3879900, “aSMase inhibitors” (2012)
Calls of active or inactive are those of the source. No rule for the calls is given here.

Each compound was assayed against T1, Sphingomyelin phosphodiesterase (Homo sapiens) (UniProt P17405) (assay: Inhibition of recombinant human acid sphingomyelinase expressed in HEKfreestyle293 cells using bodipy-C12 sphingomyelin as substrate and nanomolar to low micromolar concentration of compound after 1 hr by fluorescence assay).
T1 sequence (whole entry): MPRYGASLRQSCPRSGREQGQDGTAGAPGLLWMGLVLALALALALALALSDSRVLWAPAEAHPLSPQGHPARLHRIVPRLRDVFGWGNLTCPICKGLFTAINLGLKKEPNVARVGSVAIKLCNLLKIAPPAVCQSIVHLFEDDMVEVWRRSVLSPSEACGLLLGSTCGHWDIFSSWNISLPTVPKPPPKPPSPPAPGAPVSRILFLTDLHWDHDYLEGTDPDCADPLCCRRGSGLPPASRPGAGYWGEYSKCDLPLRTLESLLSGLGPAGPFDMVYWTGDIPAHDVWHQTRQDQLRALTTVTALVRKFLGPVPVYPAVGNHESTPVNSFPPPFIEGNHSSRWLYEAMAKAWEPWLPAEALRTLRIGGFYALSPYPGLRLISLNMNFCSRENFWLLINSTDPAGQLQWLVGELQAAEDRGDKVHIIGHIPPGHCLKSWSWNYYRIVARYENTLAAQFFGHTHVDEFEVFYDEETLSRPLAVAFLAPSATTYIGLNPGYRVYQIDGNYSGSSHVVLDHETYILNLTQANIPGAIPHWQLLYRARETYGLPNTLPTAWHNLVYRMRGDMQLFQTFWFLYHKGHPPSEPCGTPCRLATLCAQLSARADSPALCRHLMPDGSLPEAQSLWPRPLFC

inhibition, active:
CCCCCCCCOc1ccc(-c2ccc(C(=O)Nc3cccc(P(=O)(O)O)c3)cc2)cc1
CCCCCCCCOc1ccc(-c2ccc(C(=O)Nc3ccccc3C(F)(F)P(=O)(OC)OCC)cc2)cc1 (stereo not drawn)
CCCCCCCCOc1ccc(-c2ccc(C(=O)Nc3cccc(C(F)(F)P(=O)(OCC)OCC)c3)cc2)cc1
CCCCCCCCOc1ccc(-c2ccc(C(=O)Nc3cccc(C(F)(F)P(=O)(O)O)c3)cc2)cc1
CCCCCCCCOc1ccc(-c2ccc(C(=O)N(C)c3ccc(C(F)(F)P(=O)(OC)OCC)cc3)cc2)cc1 (stereo not drawn)
CCCCCCCCOc1ccc(-c2ccc(C(=O)N(C)c3ccccc3C(F)(F)P(=O)(OC)OCC)cc2)cc1 (stereo not drawn)
CCCCCCCCCCOc1ccc(-c2ccc(C(=O)Nc3ccccc3CP(=O)(O)O)cc2)cc1
CCCCCCCCOc1ccc(-c2ccc(C(=O)Nc3ccc(C(F)(F)P(=O)(O)OCC)cc3)cc2)cc1
CCCCCCCCOc1ccc(-c2ccc(C(=O)Nc3ccccc3P(=O)(OCOC(=O)C(C)(C)C)OCOC(=O)C(C)(C)C)cc2)cc1
CCCCCCCCOc1ccc(-c2ccc(C(=O)N(C)c3ccc(C(F)(F)P(=O)(OCC)OCC)cc3)cc2)cc1
CCCCCCCOc1ccc(-c2ccc(C(=O)Nc3cccc(P(=O)(O)O)c3)cc2)cc1
CCCCCCCCOc1ccc(-c2ccc(C(=O)Nc3ccccc3C(F)(F)P(=O)(O)OCC)cc2)cc1
CCCCCCCCOc1ccc(-c2ccc(C(=O)Nc3cccc(C(F)(F)C(F)(F)P(=O)(O)O)c3)cc2)cc1
O=C(Nc1ccccc1CP(=O)(O)O)c1ccc(-c2ccc(O)cc2)cc1
CCCCCCCCOc1ccc(-c2ccc(C(=O)Nc3ccccc3C(F)(F)C(F)(F)P(=O)(OCC)OCC)cc2)cc1
CCCCCCCCOc1ccc(-c2ccc(C(=O)Nc3ccc(C(F)(F)P(=O)(O)O)cc3)cc2)cc1
CCCCCCCCOc1ccc(-c2ccc(C(=O)Nc3ccc(C(F)(F)P(=O)(OCC)OCC)cc3)cc2)cc1
CCCCCCCCOc1ccc(-c2ccc(C(=O)Nc3ccccc3C(F)(F)P(=O)(OCC)OCC)cc2)cc1
CCCCCCCCOc1ccc(-c2ccc(C(=O)Nc3ccccc3P(=O)(O)OCC)cc2)cc1
CCCCCCCCOc1ccc(-c2ccc(C(=O)Nc3cccc(CP(=O)(O)O)c3)cc2)cc1
CCCCCCCCOc1ccc(-c2ccc(C(=O)Nc3cccc(C(F)(F)P(=O)(O)OCC)c3)cc2)cc1
CCCCCCCCOc1ccc(-c2ccc(C(=O)Nc3ccc(P(=O)(O)OCC)cc3)cc2)cc1
CCCCCCCCOc1ccc(-c2ccc(C(=O)Nc3ccc(C(F)(F)CC(F)(F)P(=O)(OCC)OCC)cc3)cc2)cc1
CCCCCCCCOc1ccc(-c2ccc(C(=O)N(C)c3ccccc3C(F)(F)P(=O)(O)O)cc2)cc1
CCCCCCCCOc1ccc(-c2ccc(C(=O)N(C)c3ccc(C(F)(F)P(=O)(O)O)cc3)cc2)cc1
CCCCCCCCOc1ccc(-c2ccc(C(=O)Nc3cccc(C(F)(F)C(F)(F)P(=O)(OCC)OCC)c3)cc2)cc1
CCCCCCCCOc1ccc(-c2ccc(C(=O)Nc3cccc(CCP(=O)(OCC)OCC)c3)cc2)cc1
CCCCCCCCOc1ccc(-c2ccc(C(=O)Nc3cccc(CCP(=O)(O)O)c3)cc2)cc1
CCCCCCCCOc1ccc(-c2ccc(C(=O)Nc3ccc(C(F)(F)C(F)(F)P(=O)(OCC)OCC)cc3)cc2)cc1
CCCCCCCCOc1ccc(-c2ccc(C(=O)Nc3ccc(CCP(=O)(O)O)cc3)cc2)cc1
CCCCCCCCCCOc1ccc(-c2ccc(C(=O)Nc3ccccc3P(=O)(OCC)OCC)cc2)cc1
CCCCCCc1ccc(-c2ccc(C(=O)Nc3ccccc3CP(=O)(O)O)cc2)cc1
CCCCCCCCOc1ccc(-c2ccc(C(=O)Nc3ccc(C(F)(F)C(F)(F)P(=O)(O)O)cc3)cc2)cc1
CCCCCCCCOc1ccc(-c2ccc(C(=O)Nc3ccccc3P(=O)(OCC)OCC)cc2)cc1
CCCCCCCCOc1ccc(-c2ccc(C(=O)Nc3ccccc3P(=O)(O)O)cc2)cc1
CCCCCCCCOc1ccc(-c2ccc(C(=O)N(C)c3cccc(C(F)(F)P(=O)(OC)OCC)c3)cc2)cc1 (stereo not drawn)
CCCCCCCCOc1ccc(-c2ccc(C(=O)Nc3cccc(CP(=O)(O)OCC)c3)cc2)cc1
CCCCCCCCOc1ccc(-c2ccc(C(=O)Nc3cccc(CP(=O)(OCC)OCC)c3)cc2)cc1
CCCCCCCCOc1ccc(-c2ccc(C(=O)Nc3ccc(CCP(=O)(OCC)OCC)cc3)cc2)cc1
CCCCCCc1ccc(-c2ccc(C(=O)Nc3ccccc3CP(=O)([O-])OCC[N+](C)(C)C)cc2)cc1
O=C(Nc1ccccc1CP(=O)(O)O)c1ccc(-c2ccc(OCc3ccccc3)cc2)cc1
CCCCCCCCOc1ccc(-c2ccc(C(=O)N(C)c3cccc(C(F)(F)P(=O)(O)OCC)c3)cc2)cc1
CCCCCCCCOc1ccc(-c2ccc(C(=O)N(C)c3cccc(C(F)(F)P(=O)(OCC)OCC)c3)cc2)cc1
CCCCCCCCOc1ccc(-c2ccc(C(=O)Nc3cccc(P(=O)(OCC)OCC)c3)cc2)cc1
CCCCCCCCOc1ccc(-c2ccc(C(=O)Nc3ccc(CP(=O)(O)O)cc3)cc2)cc1
CCCCCCCCOc1ccc(-c2ccc(C(=O)Nc3ccccc3CP(=O)(O)O)cc2)cc1
CCCCCCCCOc1ccc(-c2ccc(C(=O)N(CC)c3cccc(C(F)(F)P(=O)(OCC)OCC)c3)cc2)cc1
CCCCCCCCOc1ccc(-c2ccc(C(=O)Nc3ccccc3C(F)(F)C(F)(F)P(=O)(O)O)cc2)cc1
O=C(Nc1ccccc1CP(=O)(O)O)c1ccc(-c2ccccc2)cc1
CCCCCCCCOc1ccc(-c2ccc(C(=O)Nc3ccccc3C(F)(F)P(=O)(O)O)cc2)cc1
CCCCCCCCOc1ccc(-c2ccc(C(=O)Nc3cccc(P(=O)(O)OCC)c3)cc2)cc1
CCCCCCCCOc1ccc(-c2ccc(C(=O)Nc3ccc(P(=O)(O)O)cc3)cc2)cc1
CCCCOc1ccc(-c2ccc(C(=O)Nc3ccccc3CP(=O)(O)O)cc2)cc1
CCCCCCCCOc1ccc(-c2ccc(C(=O)N(C)c3ccccc3C(F)(F)P(=O)(OCC)OCC)cc2)cc1
CCCCCCCCOc1ccc(-c2ccc(C(=O)Nc3ccccc3CCP(=O)(O)O)cc2)cc1
CCCCCCCCOc1ccc(-c2ccc(C(=O)Nc3ccccc3P(=O)(O)OCOC(=O)C(C)(C)C)cc2)cc1
CCCCCCCCOc1ccc(-c2ccc(C(=O)Nc3ccc(P(=O)(OCC)OCC)cc3)cc2)cc1
CCCCCCCCOc1ccc(-c2ccc(C(=O)Nc3ccc(C(F)(F)C(F)(F)P(=O)(O)OCC)cc3)cc2)cc1
O=C(Nc1ccccc1CP(=O)(O)O)C12CC3CC(C1)CC(c1ccccc1)(C3)C2
COc1ccc(-c2ccc(C(=O)Nc3ccccc3CP(=O)(O)O)cc2)cc1
CCCCCCCCOc1ccc(-c2ccc(C(=O)Nc3ccccc3CCP(=O)(OCC)OCC)cc2)cc1
CCCCCCCCOc1ccc(-c2ccc(C(=O)Nc3cccc(N4CC(=O)NS4(=O)=O)c3)cc2)cc1
CCCCCCCCOc1ccc(-c2ccc(C(=O)N(C)c3cccc(C(F)(F)P(=O)(O)O)c3)cc2)cc1
